The values that follow come from patent publication US20250114369A1, “COMPOUNDS AND METHODS FOR TREATMENT OF VIRAL INFECTIONS” (Gilead Sciences, Inc., priority 2023, published 2025).

For data set [1], the system named is Respiratory syncytial virus recombinant with luciferase (RSV-Luc5). The data set is described as follows: microbe, parasite or virus in culture. The format is cell-based. To be noted: human respiratory syncytial virus, NHBE, 72 h, read-out: RSV NHBE EC50 (nM).
Data set [2] has as its system SARS Coronavirus 2 recombinant with NanoLuc (SARS-CoV2-NLuc). The data set is described as follows: organism not typed. It is filed as cell-based. As to conditions: 48 h.
Data set [3] can be described thus: in vitro. The format is cell-based. To be noted: human. The procedure: Cytotoxicity of the compounds was determined in uninfected cells using the cell viability reagent in a similar fashion as described before for other cell types (Cihlar et al., Antimicrob Agents Chemother. 2008, 52(2):655-65). HEp-2 (1.5×10^3 cells/well) and MT-4 (2×10^3 cells/well) cells were plated in 384-well plates and incubated with the appropriate medium containing 3-fold serially diluted compound ranging from 15 nM to 100,000 nM. Cells were cultured for 4-5 days at 37° C. Following the incubation, the cells were allowed to equilibrate to 25° C., and cell viability was determined by adding Cell-Titer Glo viability reagent. The mixture was incubated for 10 min, and the luminescence signal was quantified using an Envision plate reader. Untreated cell and cells treated at 2 μM puromycin (Sigma, St. Louis, MO) serve as […] cell viability control, respectively. The percent of cell viability was calculated for each tested compound concentration relative to the 0% and 100% controls and the CC50 value was determined by non-linear regression as a compound concentration reducing the cell viability by […].

A short description of data set [4]: in vitro. It is filed as in vitro ADME. To be noted: human, s9, pH 7.4. How it is done: Duplicate aliquots of test compound or positive control substrate (GS-7340) were added to PMSF-free Intestinal S9 fractions diluted with 100 mM phosphate buffered saline, pH 7.4, to obtain a protein concentration of 1.0 mg/mL. The S9 metabolic reactions were initiated by the addition of the substrates to the S9 reaction mixture to a final concentration of 2 μM. At 0, 10, 20, 30, 60 and 120 min, 25 μL aliquots of the reaction mixture were transferred to plates containing 225 μl of IS/Q solution. After quenching, the plates were centrifuged at 3000×g for 30 minutes, and 150 μL aliquots of each supernatant were diluted with 150 μL water. Aliquots (10 μL) of the diluted supernatant were analyzed on a Thermo Q-Exactive mass spectrometer as described below. Quantification of test compounds and controls was performed by analyte/internal standard peak area ratio (PAR) values measured on a Thermo Q-Exactive mass spectrometer coupled to a Dionex UltiMate 3000 HPLC with a Leap Technologies HTC PAL autosampler. The column used was a Thermo Hypersil GOLD (1.9 μm particle size, 2.1×50 mm). Mobile phase A consisted of […] formic acid in water. Mobile phase B consisted of 0.1% (v/v) formic acid in acetonitrile. Elution of analytes was achieved by a series of linear gradients of acetonitrile in water containing 0.1% (v/v) formic acid. The mass spectrometer was calibrated on a weekly basis and mass tolerance of 5 ppm was used.

The format of data set [5] is in vitro ADME. As to conditions: 2 μM. The procedure:
Duplicate aliquots of plasma were warmed to 37° C. and the metabolic reactions initiated by the addition of test compound (6 μL of 0.1 mM DMSO stock) or plasma stability standard (GS-7340) to obtain a final substrate concentration of 2 μM. At 0.05, 0.5, 1, 2, 3 and 4 hr, 25 μL aliquots of the reaction mixture were transferred to plates containing 225 μl of IS/Q quenching solution. After quenching, the plates were centrifuged at 3000×g for 30 minutes, and 150 μL supernatant was diluted with 150 μL water. Aliquots (10 μL) of the diluted supernatant were analyzed on a Thermo Q-Exactive mass spectrometer as described below. Quantification of test compounds and controls was performed by analyte/internal standard peak area ratio (PAR) values measured on a Thermo Q-Exactive mass spectrometer coupled to a Dionex UltiMate 3000 HPLC with a Leap Technologies HTC PAL autosampler. The column used was a Thermo Hypersil GOLD (1.9 μm particle size, 2.1×50 mm). Mobile phase A consisted of […] formic acid in water. Mobile phase B consisted of 0.1% (v/v) formic acid in acetonitrile. Elution of analytes was achieved by a series of linear gradients of acetonitrile in water containing 0.1% (v/v) formic acid. The mass spectrometer was calibrated on a weekly basis and mass tolerance of 5 ppm was used.

Data set [6] concerns Caco-2 cells (clone C2BBel). The data set can be described thus: CACO-2 permeability. The format is in vitro ADME. As to conditions: donor pH 6.5, receiver pH 7.4; for DM Caco2 A to B: forward (A to B); for DM Caco2 B to A: reverse (B to A). How it is done: Pre-plated Caco-2 cells (clone C2BBel) were obtained from Sigma-Aldrich, Inc. (Atlanta, GA). Cell monolayers were grown to confluence on collagen-coated, microporous, polycarbonate membranes in 24-well transwell plates for 21 days. The permeability assay buffer in donor wells was Hanks' balanced salt solution (HBSS) containing 10 mM HEPES and 15 mM glucose at a pH of 6.5 containing 200 μM BNPP. The receiver wells used HBSS buffer containing 10 mM HEPES and 15 mM glucose at a pH of 7.4 and supplemented with 1% BSA. After an initial equilibration with transport buffer, TEER values were read to test membrane integrity. The experiment was started by the addition of buffers containing test compounds, 200 μl and 1000 μl in the apical and basolateral chamber, respectively. At 0- and 2-hour post dose, 10 μL was sampled from donor compartment and was immediately diluted in 190 μL of 20% methanol. At 1 and 2 hours post dose, 100 μl of solution was taken from the receiver compartments and was immediately diluted in 100 μl of 20% methanol. Removed buffer was replaced with fresh buffer and a correction was applied to all calculations for the removed material. Each compound was tested in 2 separate replicate wells for each condition. All samples were then extracted with 400 μl 100% acetonitrile with internal standard to precipitate protein. Cells were dosed on the apical or basolateral side to determine forward (A to B) and reverse (B to A) permeability. To test for non-specific binding and compound instability, the total amount of drug was quantitated at the end of the experiment and compared to the material present in the original dosing solution as a percent recovery. Formation of the parent compound (GS-441524; Reference Compound A) was monitored in assay wells dosed with the prodrug. Samples were analyzed by LC-MS/MS.
In general terms: Passage across Caco-2 layers is used to estimate intestinal permeability.
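For CC50 in this document: uninfected MT-4 cells over 4-5 days by CellTiter-Glo.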

Take `N#C[C@@]1(c2ccc3c(N)ncnn23)O[C@H](COC(=O)N2C(=O)OC[C@@H]2Cc2ccccc2)[C@@H](O)[C@H]1O` [Compound 4, [(2R,3S,4R,5R)-5-(4-aminopyrrolo[2,1-f][1,2,4]triazin-7-yl)-5-cyano-3,4-dihydroxy-tetrahydrofuran-2-yl]methyl (4S)-4-benzyl-2-oxo-oxazolidine-3-carboxylate]: in data set [1], the EC50 is > 50000 nM. For the same compound, the EC50 in data set [2] was > 50 µM. For the same compound, in “in vitro [3]”, the CC50 is > 50 µM. For the same compound, the half-life at 2 μM in “in vitro [4]” is ≥ 789 min. For the same compound, in data set [5], the “STA Human Plasma 37” value amounted to 253.23. In data set [6], the “DM Caco2 A to B” value is recorded as 0.12 and the “DM Caco2 B to A” value stood at 0.94.

On to `CC(C)[C@H](NC(=O)OC[C@H]1O[C@@](C#N)(c2ccc3c(N)ncnn23)[C@H](O)[C@@H]1O)C(=O)O` [Compound 6, ((((2R,3S,4R,5R)-5-(4-aminopyrrolo[2,1-f][1,2,4]triazin-7-yl)-5-cyano-3,4-dihydroxytetrahydrofuran-2-yl)methoxy)carbonyl)-L-valine], for which the half-maximal effective concentration (EC50) in data set [1] was > 50000 nM. In data set [2], the EC50 is > 50 µM. In addition, the CC50 in the data set “in vitro [3]” is > 50 µM. The half-life at 2 μM in “in vitro [4]” is ≥ 792 min. Besides, the “STA Human Plasma 37” value in data set [5] came out at 1584. For the same compound, in data set [6], the “DM Caco2 A to B” value stood at 0.05 and the “DM Caco2 B to A” value was determined as 0.07.

As for `N#C[C@@]1(c2ccc3c(N)ncnn23)O[C@H](COC(=O)N2CCS(=O)(=O)CC2)[C@@H](O)[C@H]1O` [Compound 11, [(2R,3S,4R,5R)-5-(4-aminopyrrolo[2,1-f][1,2,4]triazin-7-yl)-5-cyano-3,4-dihydroxy-tetrahydrofuran-2-yl]methyl 1,1-dioxo-1,4-thiazinane-4-carboxylate], the EC50 in data set [1] is > 50000 nM. The EC50 in data set [2] is > 50 µM. Further, in “in vitro [3]”, the CC50 is > 50 µM. In the data set “in vitro [4]”, the half-life at 2 μM came out at 779 min. For the same compound, the “STA Human Plasma 37” value in data set [5] was determined as 1584. Besides, in data set [6], the “DM Caco2 A to B” value is 0.08 and the “DM Caco2 B to A” value worked out at 0.11.

As for `N#C[C@@]1(c2ccc3c(N)ncnn23)O[C@H](COC(=O)N2CCCO2)[C@@H](O)[C@H]1O` [Compound 12, [(2R,3S,4R,5R)-5-(4-aminopyrrolo[2,1-f][1,2,4]triazin-7-yl)-5-cyano-3,4-dihydroxy-tetrahydrofuran-2-yl]methyl isoxazolidine-2-carboxylate], the EC50 in data set [1] came out at 35300 nM. The EC50 in data set [2] was > 50 µM. The CC50 in “in vitro [3]” was > 50 µM. Besides, the half-life at 2 μM in “in vitro [4]” was determined as 85 min. For the same compound, the “STA Human Plasma 37” value in data set [5] stood at 938.47. Further, in data set [6], the “DM Caco2 A to B” value was 0.08 and the “DM Caco2 B to A” value is on record as 0.36.

Turning to `CCCSC(=O)OC[C@H]1O[C@@](C#N)(c2ccc3c(N)ncnn23)[C@H](O)[C@@H]1O` [Compound 14, [(2R,3S,4R,5R)-5-(4-aminopyrrolo[2,1-f][1,2,4]triazin-7-yl)-5-cyano-3,4-dihydroxy-tetrahydrofuran-2-yl]methyl propylsulfanylformate], in data set [1], the EC50 stood at 2620 nM. Besides, the EC50 in data set [2] stood at 11.7 µM. Besides, the CC50 in the data set “in vitro [3]” was > 50 µM. Also, the half-life at 2 μM in the data set “in vitro [4]” was 5.12 min. Further, the “STA Human Plasma 37” value in data set [5] is on record as 495.99. In data set [6], the “DM Caco2 A to B” value is listed as 2.06 and the “DM Caco2 B to A” value amounted to 9.1.

On to `CCSC(=O)OC[C@H]1O[C@@](C#N)(c2ccc3c(N)ncnn23)[C@H](O)[C@@H]1O` [Compound 15, [(2R,3S,4R,5R)-5-(4-aminopyrrolo[2,1-f][1,2,4]triazin-7-yl)-5-cyano-3,4-dihydroxy-tetrahydrofuran-2-yl]methyl ethylsulfanylformate], for which the EC50 was 5650 nM in data set [1] and 19.7 µM in data set [2]. In addition, the CC50 in the data set “in vitro [3]” is > 50 µM. The half-life at 2 μM in the data set “in vitro [4]” was 16.4 min. Also, the “STA Human Plasma 37” value in data set [5] is recorded as 451.78. Moreover, the “DM Caco2 A to B” value in data set [6] stood at 1.51. In data set [6], the “DM Caco2 B to A” value came out at 7.08.

On to `CC(C)(C)SC(=O)OC[C@H]1O[C@@](C#N)(c2ccc3c(N)ncnn23)[C@H](O)[C@@H]1O` [Compound 17, [(2R,3S,4R,5R)-5-(4-aminopyrrolo[2,1-f][1,2,4]triazin-7-yl)-5-cyano-3,4-dihydroxy-tetrahydrofuran-2-yl]methyl tert-butylsulfanylformate], for which the EC50 in data set [1] is 8110 nM. The EC50 in data set [2] is ≥ 50 µM. For the same compound, the CC50 in “in vitro [3]” was 49.8 µM. Besides, in “in vitro [4]”, the half-life at 2 μM turned out to be 44.5 min. The “STA Human Plasma 37” value in data set [5] stood at 1343.5. Also, in data set [6], the “DM Caco2 A to B” value is 3.05 and the “DM Caco2 B to A” value turned out to be 15.63.

In the case of `CC(=O)O[C@H]1[C@@H](OC(C)=O)[C@](C#N)(c2ccc3c(N)ncnn23)O[C@@H]1COC(=O)NC(C)C` [Compound 18, [(2R,3R,4R,5R)-4-acetoxy-5-(4-aminopyrrolo[2,1-f][1,2,4]triazin-7-yl)-5-cyano-2-(isopropylcarbamoyloxymethyl)tetrahydrofuran-3-yl]acetate], the concentration for a half-maximal effect (EC50) in data set [1] was > 50000 nM. Further, in data set [2], the EC50 was > 50 µM. The CC50 in the data set “in vitro [3]” is > 50 µM. In “in vitro [4]”, this compound displayed a half-life at 2 μM of 0.581 min. The “STA Human Plasma 37” value in data set [5] was determined as 16.014. For the same compound, in data set [6], the “DM Caco2 A to B” value worked out at 0.8 and the “DM Caco2 B to A” value is recorded as 6.91.

For orientation: EC50 means the concentration at which the effect is half-maximal. Broadly, the CC50 is the concentration that lowers cell viability or growth by half. A lower CC50 goes with harm at low concentration. The half-life is the time needed for the level to fall by half in the phase considered. Read a high half-life as slow decline.
